This passage reports T/C results from PubChem BioAssay AID330 (DTP/NCI, 2004).

“And” between values parts separate entries of the source, which are not always exact repeats. Equal entries are not always repeated. Inconclusive results and toxic doses are left out. Square brackets hold non-standard residues; d marks the D form. Peptide text beside a SMILES is read from it. ξ: configuration not given here. ξY = NC(Cc1ccc(O)cc1)C(=O)O

The test system of this experiment is P388 leukemia ip, CD2F1 mice, survival T/C. Put plainly: NCI In Vivo Anticancer Drug Screen. Data for tumor model P388 Leukemia (intraperitoneal) in CD2F1 (CDF1) mice. As to conditions: endpoint: median survival time, higher = longer survival. Put shortly:
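Mice carrying the transplanted tumor received test compound or vehicle. Survival was recorded in each group, and the value is the treated-group measurement divided by that of the vehicle-treated control group.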

Where [1] appears, read: dose: 60.0 mg/kg/injection, schedule: Q01DX005 (ip), vehicle: saline with Tween-80.
Setting [2] is: dose: 120.0 mg/kg/injection, schedule: Q01DX005 (ip), vehicle: saline with Tween-80.
Setting [3] is: dose: 240.0 mg/kg/injection, schedule: Q01DX005 (ip), vehicle: saline with Tween-80.
Setting [4] is: dose: 50.0 mg/kg/injection, schedule: Q01DX005 (ip), vehicle: saline with Tween-80.
Setting [5] is: dose: 100.0 mg/kg/injection, schedule: Q01DX005 (ip), vehicle: saline with Tween-80.
Where [6] appears, read: dose: 200.0 mg/kg/injection, schedule: Q01DX005 (ip), vehicle: saline with Tween-80.
Where [7] appears, read: dose: 100.0 mg/kg/injection, schedule: Q01DX001 (ip), vehicle: saline with Tween-80.
The mark [8] stands for this setting: dose: 25.0 mg/kg/injection, schedule: Q01DX005 (ip), vehicle: saline with Tween-80.
[9] abbreviates: dose: 7.5 mg/kg/injection, schedule: Q01DX005 (ip), vehicle: saline with Tween-80.
Setting [10] is: dose: 15.0 mg/kg/injection, schedule: Q01DX005 (ip), vehicle: saline with Tween-80.
[11] abbreviates: dose: 50.0 mg/kg/injection, schedule: Q01DX009 (ip), vehicle: saline with Tween-80.
Setting [12] is: dose: 100.0 mg/kg/injection, schedule: Q01DX009 (ip), vehicle: saline with Tween-80.
Where [13] appears, read: dose: 200.0 mg/kg/injection, schedule: Q01DX009 (ip), vehicle: saline with Tween-80.

Regarding `CN=c1nc2n3c(cccc3n1)NC(C)=N2`, the T/C runs as follows: under setting [1], 100 % of control; under setting [2], 92 % of control; under setting [3], 99 % of control.
As to `O=C1C(CCl)=C(c2ccccc2)S(=O)(=O)c2ccccc21`, the T/C under setting [4] is 109 % of control, the T/C under setting [5] was 114 % of control and the T/C under setting [6] was 114 % of control.
Take `CC(C)NC(=O)c1ccccc1Sc1ccccc1CN(C)C(C)C`: the T/C is 99 % of control (dose: 25.0 mg/kg/injection, schedule: Q01DX001 (ip), vehicle: saline with Tween-80); 95 % of control (dose: 50.0 mg/kg/injection, schedule: Q01DX001 (ip), vehicle: saline with Tween-80); 98 % of control and 102 % of control under setting [7].
Take `CC(=C\C1=CC(C)(C)CCC1(C)C)/C=C(C)/C=C/C=[N+](\[O-])C1C(C2COC(C)(C)O2)OC2OC(C)(C)OC21` (stereo unspecified): the T/C reads like this: (dose: 12.5 mg/kg/injection, schedule: Q01DX005 (ip), vehicle: DMSO) 103 % of control; (dose: 25.0 mg/kg/injection, schedule: Q01DX005 (ip), vehicle: DMSO) 119 % of control; (dose: 50.0 mg/kg/injection, schedule: Q01DX005 (ip), vehicle: DMSO) 100 % of control and 113 % of control; (dose: 100.0 mg/kg/injection, schedule: Q01DX005 (ip), vehicle: DMSO) 106 % of control; (dose: 200.0 mg/kg/injection, schedule: Q01DX005 (ip), vehicle: DMSO) 103 % of control.
As to `C[n+]1c(-c2cccc(OCCOCCOCCOc3cccc(-c4c5cc(N)ccc5c5ccc(N)cc5[n+]4C)c3)c2)c2cc(N)ccc2c2ccc(N)cc21`, the T/C reads like this: (dose: 0.39 mg/kg/injection, schedule: Q01DX009 (ip), vehicle: water) 111 % of control; (dose: 0.78 mg/kg/injection, schedule: Q01DX009 (ip), vehicle: water) 104 % of control.
`CCOC(=O)c1c[n+](C2OC(COC(=O)c3ccccc3)C(OC(=O)c3ccccc3)C2OC(=O)c2ccccc2)ccc1N` (stereo unspecified): the T/C (dose: 12.5 mg/kg/injection, schedule: Q01DX005 (ip), vehicle: saline with Tween-80) is 98 % of control; the T/C under setting [8] is 107 % of control; the T/C under setting [4] was 105 % of control and 92 % of control.
For the compound `CCC(c1ccc(OC)cc1)C(CC)c1ccc(O)c(CN(C)C)c1` (stereo unspecified), the T/C reads like this: under setting [1], 94 % of control; under setting [2], 92 % of control; under setting [3], 92 % of control.
Take `O=C(O)CSCc1nc2ccccc2[nH]1`: the T/C was 95 % of control under setting [7]; 90 % of control (dose: 200.0 mg/kg/injection, schedule: Q01DX001 (ip), vehicle: saline with Tween-80); 100 % of control (dose: 400.0 mg/kg/injection, schedule: Q01DX001 (ip), vehicle: saline with Tween-80).
As to `Cc1cc2nc(CC(=O)c3ccccc3)c(CC(=O)c3ccccc3)nc2cc1C`, the T/C reads like this: under setting [9], 98 % of control; under setting [10], 95 % of control.
Take `C=C1CC(C)OC1=O` (stereo unspecified): the T/C by setting is: (dose: 100.0 mg/kg/injection, schedule: Q04DX002 (ip), vehicle: saline with Tween-80) 103 % of control; (dose: 200.0 mg/kg/injection, schedule: Q04DX002 (ip), vehicle: saline with Tween-80) 111 % of control.
As to `CC(=Nc1c[nH]c(=O)[nH]c1=O)c1cc(C)ccc1O`, the T/C runs as follows: (dose: 100.0 mg/kg/injection, schedule: Q04DX002 (ip), vehicle: suspension in saline) 105 % of control; (dose: 200.0 mg/kg/injection, schedule: Q04DX002 (ip), vehicle: suspension in saline) 101 % of control; (dose: 400.0 mg/kg/injection, schedule: Q04DX002 (ip), vehicle: suspension in saline) 104 % of control.
Regarding `O=C1CCN(Cc2ccccc2)C(=O)N1`, the T/C runs as follows: under setting [11], 100 % of control; under setting [12], 105 % of control; under setting [13], 100 % of control.
Take `O=C1CSC(=S)N1c1cccc(F)c1`: the T/C reads like this: (dose: 50.0 mg/kg/injection, schedule: Q01DX009 (ip), vehicle: suspension in saline) 108 % of control; (dose: 100.0 mg/kg/injection, schedule: Q01DX009 (ip), vehicle: suspension in saline) 100 % of control; (dose: 200.0 mg/kg/injection, schedule: Q01DX009 (ip), vehicle: suspension in saline) 100 % of control.
In the case of `NCC(=O)NC(Cc1ccc(O)cc1)C(=O)NCC(=O)O` (stereo unspecified) (H-Gly-[ξY]-Gly-OH), the T/C runs as follows: (dose: 50.0 mg/kg/injection, schedule: Q01DX005 (ip), vehicle: Klucel (hydroxypropylcellulose) (HPC)) 99 % of control; (dose: 100.0 mg/kg/injection, schedule: Q01DX005 (ip), vehicle: Klucel (hydroxypropylcellulose) (HPC)) 98 % of control; (dose: 200.0 mg/kg/injection, schedule: Q01DX005 (ip), vehicle: Klucel (hydroxypropylcellulose) (HPC)) 98 % of control.
Turning to `CN=S(=O)(OCCCCOS(=O)(=NC)c1ccc(C)cc1)c1ccc(C)cc1` (stereo unspecified), where the note is “dose: 50.0 mg/kg/injection, schedule: Q04DX003 (ip), vehicle: saline with Tween-80”, the T/C was 116 % of control.
With `COC(=O)c1nc(=S)[nH]c(C(=O)OC)c1C(=O)c1cc(Cl)ccc1Cl`, the T/C under setting [1] is 96 % of control, the T/C under setting [2] was 101 % of control and the T/C under setting [3] is 100 % of control.
For `Clc1ccccc1-c1nnc(-c2cccc(-c3nnc(-c4ccccc4Cl)o3)n2)o1`, the T/C runs as follows: under setting [9], 89 % of control; under setting [10], 91 % of control; (dose: 30.0 mg/kg/injection, schedule: Q01DX005 (ip), vehicle: saline with Tween-80) 89 % of control; under setting [1], 101 % of control; under setting [2], 97 % of control; under setting [3], 104 % of control.
Take `CCOC(=O)c1ccc(NC(Cc2ccccc2)=NC(C)(C)C)cc1`: the T/C was 98 % of control under setting [11], 94 % of control under setting [12] and 88 % of control under setting [13].
Regarding `CC1(C)CC(N)=CC(=S)N1`, the T/C is 92 % of control (dose: 12.5 mg/kg/injection, schedule: Q01DX009 (ip), vehicle: saline with Tween-80); 97 % of control (dose: 25.0 mg/kg/injection, schedule: Q01DX009 (ip), vehicle: saline with Tween-80); 101 % of control under setting [11].
As for `O=C(NC(=O)Nc1ccc(Cl)cc1)NC(=O)c1ccccc1F`, the T/C was 114 % of control under setting [11], 101 % of control under setting [12] and 95 % of control under setting [13].
With `COc1ccc(C(C)c2cc3c(cc2OCC(=O)O)OCO3)cc1OC` (stereo unspecified), the T/C is 95 % of control (dose: 50.0 mg/kg/injection, schedule: Q01DX005 (ip), vehicle: distilled water + Tween-80) and 102 % of control (dose: 100.0 mg/kg/injection, schedule: Q01DX005 (ip), vehicle: distilled water + Tween-80).
For `CC(=O)Nc1ncc(Sc2ccc([N+](=O)[O-])cc2)s1`, the T/C (dose: 1.56 mg/kg/injection, schedule: Q04DX003 (ip), vehicle: saline) is 100 % of control; the T/C (dose: 3.13 mg/kg/injection, schedule: Q04DX003 (ip), vehicle: saline) is 99 % of control; the T/C (dose: 6.25 mg/kg/injection, schedule: Q04DX003 (ip), vehicle: saline) is 98 % of control; the T/C (dose: 12.5 mg/kg/injection, schedule: Q04DX003 (ip), vehicle: saline) is 97 % of control.
With `Oc1ccccc1N=Cc1ccc2c(c1)OCO2`, the T/C is, setting by setting: under setting [8], 103 % of control; under setting [4], 110 % of control; under setting [5], 104 % of control; under setting [6], 110 % of control.
As for `O=C(NC(=NC(=NC1CCCCC1)c1ccccc1)c1ccccc1)c1ccccc1`, the T/C under setting [11] is 99 % of control, the T/C under setting [12] is 92 % of control and the T/C under setting [13] was 89 % of control.
Consider `COC(C(=O)C(O)C(C)O)C1CC2C=C3C=C(OC4CC(OC5CC(O)C(OC)C(C)O5)C(OC(C)=O)C(C)O4)C(C)C(=O)C3=C(O)C2=C(O)C1OC1CC(OC2CC(OC3CC(C)(O)C(O)C(C)O3)C(O)C(C)O2)C(O)C(C)O1` (stereo unspecified), for which the T/C by setting is: (dose: 0.25 mg/kg/injection, schedule: Q01DX001 (ip), vehicle: water) 110 % of control; (dose: 0.5 mg/kg/injection, schedule: Q01DX001 (ip), vehicle: water) 112 % of control; (dose: 1.0 mg/kg/injection, schedule: Q01DX001 (ip), vehicle: water) 118 % of control; (dose: 2.0 mg/kg/injection, schedule: Q01DX001 (ip), vehicle: water) 124 % of control; (dose: 8.0 mg/kg/injection, schedule: Q01DX001 (ip), vehicle: water) 154 % of control.
Regarding `COC(=O)C1=C(C)OC2OCCC12` (stereo unspecified), the T/C is 110 % of control under setting [1], 101 % of control under setting [2] and 102 % of control under setting [3].
